The target of data set [1] is T1, GAK (Homo sapiens, UniProt O14976).
T1 sequence (O14976 1-1311): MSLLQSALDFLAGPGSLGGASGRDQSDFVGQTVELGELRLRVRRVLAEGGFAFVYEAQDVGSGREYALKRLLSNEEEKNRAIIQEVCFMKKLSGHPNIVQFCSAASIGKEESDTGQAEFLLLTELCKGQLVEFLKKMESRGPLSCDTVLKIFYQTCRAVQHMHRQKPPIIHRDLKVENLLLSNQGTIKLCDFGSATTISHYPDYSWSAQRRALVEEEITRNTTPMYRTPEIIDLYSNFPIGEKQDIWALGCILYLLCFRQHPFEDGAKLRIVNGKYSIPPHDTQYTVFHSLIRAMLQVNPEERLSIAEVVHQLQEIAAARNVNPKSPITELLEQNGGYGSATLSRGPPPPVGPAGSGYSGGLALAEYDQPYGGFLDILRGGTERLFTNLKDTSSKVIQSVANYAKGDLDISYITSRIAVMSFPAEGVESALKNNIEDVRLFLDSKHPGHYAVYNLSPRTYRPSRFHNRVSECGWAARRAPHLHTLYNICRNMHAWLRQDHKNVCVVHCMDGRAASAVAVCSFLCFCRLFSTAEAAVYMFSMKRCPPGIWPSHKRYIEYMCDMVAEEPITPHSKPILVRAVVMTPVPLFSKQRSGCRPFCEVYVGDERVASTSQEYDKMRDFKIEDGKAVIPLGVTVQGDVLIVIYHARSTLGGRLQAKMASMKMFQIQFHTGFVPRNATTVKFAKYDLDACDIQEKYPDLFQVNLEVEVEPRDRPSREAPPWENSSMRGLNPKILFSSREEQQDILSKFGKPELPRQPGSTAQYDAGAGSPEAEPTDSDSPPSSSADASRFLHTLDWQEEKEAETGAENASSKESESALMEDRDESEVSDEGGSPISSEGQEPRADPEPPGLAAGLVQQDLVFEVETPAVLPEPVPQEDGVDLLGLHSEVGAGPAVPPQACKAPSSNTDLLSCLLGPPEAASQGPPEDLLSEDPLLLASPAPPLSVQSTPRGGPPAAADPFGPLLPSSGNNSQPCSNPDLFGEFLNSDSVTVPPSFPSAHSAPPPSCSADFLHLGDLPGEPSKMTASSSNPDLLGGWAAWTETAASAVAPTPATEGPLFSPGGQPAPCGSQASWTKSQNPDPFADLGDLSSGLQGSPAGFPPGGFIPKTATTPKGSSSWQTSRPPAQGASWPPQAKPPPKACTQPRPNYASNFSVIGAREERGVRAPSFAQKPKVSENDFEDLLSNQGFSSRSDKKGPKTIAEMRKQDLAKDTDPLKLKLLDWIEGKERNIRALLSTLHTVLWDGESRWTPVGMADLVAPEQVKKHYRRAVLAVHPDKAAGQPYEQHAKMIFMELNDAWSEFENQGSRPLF
Briefly: KINOMEscan active site-directed competition binding assay, GAK.

In another data set the test system is HCV RNA replication. In words: HCV RNA replication by luciferase assay after electroporation. To be noted: 72 hours postelectroporation, treated daily. The data set is classed as cell-based, hepatitis C virus.
A further data set deals with Huh-7.5 cells. In words: Cellular viability, alamarBlue-based assay. The following applies: HCVpp entry assay, 4 hour treatment. For orientation: The colour change of resazurin is a common sign of viable cells or microbes.
The target of another data set is EGFR (Homo sapiens, UniProt P00533). In words: EGFR binding / anti-EGFR activity.
In a further data set the test system is AP2M1 phosphorylation. In words: AP2M1 phosphorylation by Western analysis in Huh-7.5 cells. The data set is classed as cell-based, human. The following applies: calyculin A, versus DMSO control.
Data set [2] addresses T1, GAK. To be noted: cited from earlier work.

The text below walks through data of PMC4431592 (Journal of medicinal chemistry, 2015).

EGFR, sequence (P00533 25-1210): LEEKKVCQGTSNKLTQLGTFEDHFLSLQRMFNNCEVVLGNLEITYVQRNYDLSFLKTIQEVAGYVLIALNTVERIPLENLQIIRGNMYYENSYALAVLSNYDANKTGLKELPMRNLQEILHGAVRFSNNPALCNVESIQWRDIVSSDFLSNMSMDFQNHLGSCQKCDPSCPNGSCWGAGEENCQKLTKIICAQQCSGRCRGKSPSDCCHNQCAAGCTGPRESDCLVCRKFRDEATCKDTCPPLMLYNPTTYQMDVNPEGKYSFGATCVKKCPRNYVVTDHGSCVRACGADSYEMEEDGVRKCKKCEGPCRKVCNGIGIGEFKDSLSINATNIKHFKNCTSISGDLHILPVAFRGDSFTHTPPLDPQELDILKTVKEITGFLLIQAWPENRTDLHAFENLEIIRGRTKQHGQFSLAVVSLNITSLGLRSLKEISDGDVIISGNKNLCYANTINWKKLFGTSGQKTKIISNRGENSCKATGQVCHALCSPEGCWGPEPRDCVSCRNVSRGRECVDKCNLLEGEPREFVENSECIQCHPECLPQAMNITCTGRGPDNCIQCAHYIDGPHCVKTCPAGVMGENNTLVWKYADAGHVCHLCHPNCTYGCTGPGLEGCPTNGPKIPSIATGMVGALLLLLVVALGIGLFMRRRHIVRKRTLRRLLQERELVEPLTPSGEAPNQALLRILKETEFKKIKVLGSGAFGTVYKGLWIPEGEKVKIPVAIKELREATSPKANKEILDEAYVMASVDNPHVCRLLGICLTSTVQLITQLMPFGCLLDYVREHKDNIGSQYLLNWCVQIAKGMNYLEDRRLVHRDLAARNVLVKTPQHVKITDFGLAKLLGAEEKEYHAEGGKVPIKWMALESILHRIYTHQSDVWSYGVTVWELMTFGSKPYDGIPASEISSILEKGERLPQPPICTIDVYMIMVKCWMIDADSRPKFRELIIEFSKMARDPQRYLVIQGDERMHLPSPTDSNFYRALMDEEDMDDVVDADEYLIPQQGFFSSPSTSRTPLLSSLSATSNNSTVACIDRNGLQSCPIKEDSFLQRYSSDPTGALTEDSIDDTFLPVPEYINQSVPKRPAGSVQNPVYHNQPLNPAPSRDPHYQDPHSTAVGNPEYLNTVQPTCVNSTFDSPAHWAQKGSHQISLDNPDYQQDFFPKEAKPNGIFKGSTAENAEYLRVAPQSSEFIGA

Take `c1csc(-c2cnc3c(N4CCOCC4)snc3c2)c1` [Compound 12a, 4-(6-(Thiophen-2-yl)isothiazolo[4,3-b]pyridin-3-yl)morpholine]: at GAK [1], the “GAK affinity (in words)” value is given as “equipotent”.

In the case of `COc1ccc(-c2cnc3c(N4CCOCC4)snc3c2)c(OC)c1` [Compound 12c, 4-(6-(2,4-Dimethoxyphenyl)isothiazolo[4,3-b]pyridin-3-yl)morpholine], on GAK [1], the “GAK affinity (in words)” value is reported as “lacks any affinity”.

Consider `c1cc2c(cc1-c1cnc3c(N4CCOCC4)snc3c1)OCO2` [Compound 12f, 4-(6-(Benzo[d][1,3]dioxol-5-yl)isothiazolo[4,3-b]pyridin-3-yl)morpholine], for which the “GAK affinity (in words)” value on GAK [1] is “completely inactive”.

With `COc1cc(-c2cnc3c(N4CCOCC4)snc3c2)cc(OC)c1OC` [Compound 12g, 4-(6-(3,4,5-Trimethoxyphenyl)isothiazolo[4,3-b]pyridin-3-yl)morpholine], the “effect on HCV RNA replication (in words)” value with HCV RNA replication is recorded as “did not affect HCV RNA replication”. Further, the “effect on cellular viability (in words)” value in the data set with Huh-7.5 cells is reported as “minimal effect on cellular viability”. Further, on EGFR, the “anti-EGFR activity (in words)” value was “lack anti-EGFR activity”. The “p-AP2M1 to AP2M1 ratio (in words)” value with AP2M1 phosphorylation is reported as “reduced”.

As for `COc1cc(-c2cnc3c(N4CCOCC4)snc3c2)ccc1N` [Compound 12i, 2-Methoxy-4-(3-morpholinoisothiazolo[4,3-b]pyridin-6-yl)aniline], in the data set with HCV RNA replication, the “effect on HCV RNA replication (in words)” value is “did not affect HCV RNA replication”. Also, the “anti-EGFR activity (in words)” value on EGFR is recorded as “lack anti-EGFR activity”.

As for `COc1ccc(-c2cnc3c(NCCc4ccccc4)snc3c2)cc1OC` [Compound 13k, 6-(3,4-dimethoxyphenyl)-N-phenethylisothiazolo[4,3-b]pyridin-3-amine], the “GAK affinity (in words)” value on GAK [1] is reported as “completely lacking GAK affinity”.

Turning to `CCOc1cc2ncc(C#N)c(Nc3ccc(F)c(Cl)c3)c2cc1NC(=O)/C=C/CN(C)C` [pelitinib], the “Kd (in words)” value at GAK [2] is on record as “low nanomolar range”.
